From PubChem BioAssay (NCI)
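Five compound concentrations were applied to cells in 96-well plates for 48 hours; endpoints were derived by simple linear interpolation of the resulting dose-response curve. GI50 is the concentration that inhibits growth by half. The concentration for full growth arrest is given as TGI.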

Tests used:
Experiment in all cases: NCI-60 cell line screen, 48 h
[1] = tested on: SF-539 CNS
[2] = tested on: MOLT-4 leukemia
[3] = tested on: U251 CNS
[4] = tested on: IGROV1 ovarian
[5] = tested on: TK-10 renal
[6] = tested on: HCT-15 colon
[7] = tested on: COLO 205 colon
[8] = tested on: EKVX NSCLC
[9] = tested on: CCRF-CEM leukemia
[10] = tested on: SW-620 colon
[11] = tested on: RXF 393 renal
[12] = tested on: KM20L2 colon
[13] = tested on: SK-MEL-28 melanoma
[14] = tested on: SK-MEL-5 melanoma
[15] = tested on: ACHN renal
[16] = tested on: HT29 colon
[17] = tested on: K-562 leukemia
[18] = tested on: SF-268 CNS
[19] = tested on: HCC-2998 colon
[20] = tested on: HOP-18 NSCLC
[21] = tested on: A549 NSCLC
[22] = tested on: RPMI-8226 leukemia
[23] = tested on: CAKI-1 renal
[24] = tested on: OVCAR-3 ovarian
[25] = tested on: UACC-257 melanoma
[26] = tested on: M14 melanoma
[27] = tested on: UACC-62 melanoma
[28] = tested on: OVCAR-5 ovarian
[29] = tested on: SK-OV-3 ovarian
[30] = tested on: LOX IMVI melanoma
[31] = tested on: DMS 273 small cell lung
[32] = tested on: NCI-H23 lung
[33] = tested on: XF 498 CNS
[34] = tested on: OVCAR-4 ovarian
[35] = tested on: SNB-19 CNS
[36] = tested on: SK-MEL-2 melanoma
[37] = tested on: SNB-75 CNS
[38] = tested on: KM12 colon
[39] = tested on: UO-31 renal
[40] = tested on: NCI-H460 lung
[41] = tested on: SN12C renal
[42] = tested on: A498 renal
[43] = tested on: 786-0 renal
[44] = tested on: MALME-3M melanoma
[45] = tested on: HL-60(TB) leukemia
[46] = tested on: SNB-78 CNS
[47] = tested on: M19-MEL melanoma
[48] = tested on: OVCAR-8 ovarian
[49] = tested on: DMS 114 small cell lung
[50] = tested on: SF-295 CNS
[51] = tested on: DLD-1 colon
[52] = tested on: LXFL 529 NSCLC
[53] = tested on: HOP-62 NSCLC
[54] = tested on: HCT-116 colon
[55] = tested on: NCI-H522 lung

[C-]#[O+].[C-]#[O+].[C-]#[O+].[C-]#[O+].[O-]C(c1ccccc1[PH+]1OC(C(F)(F)F)(C(F)(F)F)c2ccccc21)(C(F)(F)F)C(F)(F)F.[Re] (centres undefined)
GI50 [1]: 2.85 µM
TGI [1]: 8.68 µM
GI50 [2]: 2.5 µM
TGI [2]: 6.39 µM
GI50 [3]: 3.05 µM
TGI [3]: 14.1 µM
GI50 [4]: 3.46 µM
TGI [4]: 14.8 µM
GI50 [5]: 7.26 µM
TGI [5]: 21.7 µM
GI50 [6]: 5.72 µM
TGI [6]: 20.6 µM
GI50 [7]: 2.32 µM
TGI [7]: 5.74 µM
GI50 [8]: 7.51 µM
TGI [8]: 25.4 µM
GI50 [9]: 2.39 µM
TGI [9]: 5.83 µM
GI50 [10]: 3.87 µM
TGI [10]: 13.5 µM
GI50 [11]: 1.9 µM
TGI [11]: 4.04 µM
GI50 [12]: 2.2 µM
TGI [12]: 13.7 µM
GI50 [13]: 2.56 µM
TGI [13]: 6.8 µM
GI50 [14]: 6.33 µM
TGI [14]: 20.6 µM
GI50 [15]: 3.75 µM
TGI [15]: 12.9 µM
GI50 [16]: 3.6 µM
TGI [16]: 12.2 µM
GI50 [17]: 2.69 µM
TGI [17]: 11.1 µM
GI50 [18]: 6.18 µM
TGI [18]: 23.5 µM
GI50 [19]: 5.11 µM
TGI [19]: 18.3 µM
GI50 [20]: 7.89 µM
TGI [20]: 21.1 µM
GI50 [21]: 4.56 µM
TGI [21]: 19.2 µM
GI50 [22]: 2.89 µM
TGI [22]: 12.5 µM
GI50 [23]: 5.45 µM
TGI [23]: 20.8 µM
GI50 [24]: 2.77 µM
TGI [24]: 7.58 µM
GI50 [25]: 2.26 µM
TGI [25]: 4.28 µM
GI50 [26]: 1.99 µM
TGI [26]: 4.01 µM
GI50 [27]: 2.12 µM
TGI [27]: 4.92 µM
GI50 [28]: 5 µM
TGI [28]: 18.6 µM
GI50 [29]: 14.7 µM
TGI [29]: 30.2 µM
GI50 [30]: 2.59 µM
TGI [30]: 6.2 µM
GI50 [31]: 2.93 µM
TGI [31]: 9.78 µM
GI50 [32]: 2.36 µM
TGI [32]: 5.25 µM
GI50 [33]: 2.96 µM
TGI [33]: 10.3 µM
GI50 [34]: 2.88 µM
TGI [34]: 8.53 µM
GI50 [35]: 11.5 µM
TGI [35]: 33.5 µM
GI50 [36]: 4.88 µM
TGI [36]: 18.2 µM
GI50 [37]: 4.65 µM
TGI [37]: 15.6 µM
GI50 [38]: 3.9 µM
TGI [38]: 12.5 µM
GI50 [39]: 2.58 µM
TGI [39]: 7.02 µM
GI50 [40]: 2.92 µM
TGI [40]: 8.97 µM
GI50 [41]: 3.63 µM
TGI [41]: 13.4 µM
GI50 [42]: 2.5 µM
TGI [42]: 8.19 µM
GI50 [43]: 4.26 µM
TGI [43]: 15.3 µM
GI50 [44]: 2.33 µM
TGI [44]: 5.07 µM
GI50 [45]: 2.81 µM
TGI [45]: 11.4 µM
GI50 [46]: 3.7 µM
TGI [46]: 19.5 µM
GI50 [47]: 3.59 µM
TGI [47]: 14.4 µM
GI50 [48]: 3.65 µM
TGI [48]: 15.6 µM
GI50 [49]: 2.78 µM
TGI [49]: 8.82 µM
GI50 [50]: 4.97 µM
TGI [50]: 18.3 µM
GI50 [51]: 5.1 µM
TGI [51]: 21.1 µM
GI50 [52]: 2.01 µM
TGI [52]: 4.26 µM
GI50 [53]: 7.54 µM
TGI [53]: 24 µM

O=C1Nc2ccccc2C12CCCC2
TGI [1]: > 100 µM
TGI [2]: > 100 µM
TGI [3]: > 100 µM
TGI [4]: > 100 µM
TGI [5]: > 100 µM
TGI [6]: > 100 µM
TGI [7]: > 100 µM
TGI [8]: > 100 µM
TGI [9]: > 100 µM
TGI [10]: > 100 µM
TGI [54]: > 100 µM
TGI [11]: > 100 µM
TGI [12]: > 100 µM
TGI [13]: > 100 µM
TGI [14]: > 100 µM
TGI [15]: > 100 µM
TGI [16]: > 100 µM
TGI [17]: > 100 µM
TGI [18]: > 100 µM
TGI [19]: > 100 µM
TGI [20]: > 100 µM
TGI [21]: > 100 µM
TGI [22]: > 100 µM
TGI [23]: > 100 µM
TGI [24]: > 100 µM
TGI [25]: > 100 µM
TGI [26]: > 100 µM
TGI [27]: > 100 µM
TGI [29]: > 100 µM
TGI [31]: > 100 µM
TGI [32]: > 100 µM
TGI [33]: > 100 µM
TGI [34]: > 100 µM
TGI [35]: > 100 µM
TGI [36]: > 100 µM
TGI [37]: > 100 µM
TGI [38]: > 100 µM
TGI [39]: > 100 µM
TGI [40]: > 100 µM
TGI [41]: > 100 µM
TGI [42]: > 100 µM
TGI [43]: > 100 µM
TGI [44]: > 100 µM
TGI [45]: > 100 µM
TGI [46]: > 100 µM
TGI [47]: > 100 µM
TGI [48]: > 100 µM
TGI [49]: > 100 µM
TGI [55]: > 100 µM
TGI [50]: > 100 µM
TGI [51]: > 100 µM
TGI [52]: > 100 µM
TGI [53]: > 100 µM
